According to patent US6555535B2, “Tricyclic biphenyl sulfonamide matrix metalloproteinase inhibitors” (Warner-Lambert Company, priority 2001, dated 2003):

How the values were obtained:
Type in all cases: biochemical
[1] = target: T1, MMP-1FL (Homo sapiens, UniProt P03956); test: thiopeptolide hydrolysis assay, full length interstitial collagenase; conditions: thiopeptolide substrate, HEPES pH 7.0, 22° C.
T1 sequence (P03956 100-469): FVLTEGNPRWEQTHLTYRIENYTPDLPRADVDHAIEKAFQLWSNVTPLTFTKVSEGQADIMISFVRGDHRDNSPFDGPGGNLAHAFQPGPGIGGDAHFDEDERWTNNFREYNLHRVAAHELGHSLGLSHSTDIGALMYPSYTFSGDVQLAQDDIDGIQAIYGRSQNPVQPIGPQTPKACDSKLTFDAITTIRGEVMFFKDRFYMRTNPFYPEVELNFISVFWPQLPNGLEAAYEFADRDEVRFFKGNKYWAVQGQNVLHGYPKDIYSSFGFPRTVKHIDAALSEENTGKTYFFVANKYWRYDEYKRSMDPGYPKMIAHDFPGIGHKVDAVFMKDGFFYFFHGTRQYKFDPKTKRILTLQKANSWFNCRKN
Text: (§1) The assays measure the amount by which a test compound reduces the hydrolysis of a thiopeptolide substrate catalyzed by a matrix metalloproteinase enzyme. Such assays are described in detail by Ye et al., in Biochemistry, 1992;31(45):11231-11235, which is incorporated herein by reference.
(§2) Thiopeptolide substrates show virtually no decomposition or hydrolysis at or below neutral pH in the absence of a matrix metalloproteinase enzyme. A typical thiopeptolide substrate commonly utilized for assays is Ac-Pro-Leu-Gly-thioester-Leu-Leu-Gly-OEt. A 100 μL assay mixture will contain 50 mM of N-2-hydroxyethylpiperazine-N′-2-ethanesulfonic acid buffer (“HEPES”) at pH 7.0, 10 mM CaCl2, 100 μM thiopeptolide substrate, and 1 mM 5,5′-dithio-bis-(2-nitro-benzoic acid) (DTNB). The thiopeptolide substrate concentration may be varied from, for example, 10 to 800 μM to obtain Km and Kcat values. The change in absorbance at 405 nm is monitored on a Thermo Max microplate reader (Molecular Devices, Menlo Park, Calif.) at room temperature (22° C.). The calculation of the amount of hydrolysis of the thiopeptolide substrate is based on E412=13600 M^−1 cm^−1 for the DTNB-derived product 3-carboxy-4-nitrothiophenoxide. Assays are carried out with and without matrix metalloproteinase inhibitor compounds, and the amount of hydrolysis is compared for a determination of inhibitory activity of the test compounds.
(§3) Several representative compounds have been evaluated for their ability to inhibit various matrix metalloproteinase enzymes. In Table 1, MMP-1FL refers to full length interstitial collagenase; MMP-2FL refers to full length Gelatinase A; MMP-3CD refers to the catalytic domain of stromelysin-1; MMP-7FL refers to full length matrilysin; MMP-9FL refers to full length Gelatinase B; MMP-13CD refers to the catalytic domain of collagenase 3; and MMP-14CD refers to the catalytic domain of MMP-14. Test compounds were evaluated at various concentrations in order to determine their respective IC50 values, the micromolar concentration of compound required to cause a 50% inhibition of the catalytic activity of the respective enzyme.

[2] = target: T2, MMP-2FL (Homo sapiens, UniProt P08253); test: thiopeptolide hydrolysis assay, full length Gelatinase A; conditions: thiopeptolide substrate, HEPES pH 7.0, 22° C.
T2 sequence (P08253 110-660): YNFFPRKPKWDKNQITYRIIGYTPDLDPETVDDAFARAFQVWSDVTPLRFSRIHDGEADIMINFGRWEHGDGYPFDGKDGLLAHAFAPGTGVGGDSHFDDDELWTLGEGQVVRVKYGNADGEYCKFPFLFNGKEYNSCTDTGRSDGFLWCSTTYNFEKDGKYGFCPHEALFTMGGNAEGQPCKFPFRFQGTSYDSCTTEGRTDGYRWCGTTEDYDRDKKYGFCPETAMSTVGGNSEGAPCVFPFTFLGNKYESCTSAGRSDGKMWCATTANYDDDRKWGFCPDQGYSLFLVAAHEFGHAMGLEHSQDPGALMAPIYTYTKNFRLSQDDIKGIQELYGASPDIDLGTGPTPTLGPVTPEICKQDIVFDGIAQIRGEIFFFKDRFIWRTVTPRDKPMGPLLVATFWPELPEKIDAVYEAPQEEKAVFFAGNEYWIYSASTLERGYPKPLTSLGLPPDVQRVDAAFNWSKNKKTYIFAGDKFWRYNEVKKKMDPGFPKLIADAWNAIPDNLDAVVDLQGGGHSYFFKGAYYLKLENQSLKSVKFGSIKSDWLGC
Text: as §1, §2, §3

[3] = target: MMP-3CD (Homo sapiens, UniProt P08254); test: thiopeptolide hydrolysis assay, catalytic domain of stromelysin-1; conditions: thiopeptolide substrate, MES buffer pH 6.0
Text: as §1, §2, §3
It should be appreciated that the assay buffer used with MMP-3CD was 50 mM of 2-morpholinoethanesulfonic acid monohydrate (“MES”) at pH 6.0, rather than the HEPES buffer at pH 7.0 described above.

[4] = target: T3, MMP-7FL (Homo sapiens, UniProt P09237); test: thiopeptolide hydrolysis assay, full length matrilysin; conditions: thiopeptolide substrate, HEPES pH 7.0, 22° C.
T3 sequence (P09237 95-267): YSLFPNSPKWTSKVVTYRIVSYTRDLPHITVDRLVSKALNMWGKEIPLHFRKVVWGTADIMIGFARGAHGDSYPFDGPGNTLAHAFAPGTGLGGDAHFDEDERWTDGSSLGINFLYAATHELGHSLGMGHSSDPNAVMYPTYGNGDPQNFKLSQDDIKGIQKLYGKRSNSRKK
Text: as §1, §2, §3

[5] = target: MMP-9FL (Homo sapiens, UniProt P14780); test: thiopeptolide hydrolysis assay, full length Gelatinase B; conditions: thiopeptolide substrate, HEPES pH 7.0, 22° C.
Text: as §1, §2, §3

[6] = target: MMP-13CD (Homo sapiens, UniProt P45452); test: thiopeptolide hydrolysis assay, catalytic domain of collagenase 3; conditions: thiopeptolide substrate, HEPES pH 7.0, 22° C.
Text: as §1, §2, §3

[7] = target: MMP-14CD (Homo sapiens, UniProt P50281); test: thiopeptolide hydrolysis assay, catalytic domain of MMP-14; conditions: thiopeptolide substrate, HEPES pH 7.0, 22° C.
Text: as §1, §2, §3

Chain of MMP-9FL (P14780 94-707): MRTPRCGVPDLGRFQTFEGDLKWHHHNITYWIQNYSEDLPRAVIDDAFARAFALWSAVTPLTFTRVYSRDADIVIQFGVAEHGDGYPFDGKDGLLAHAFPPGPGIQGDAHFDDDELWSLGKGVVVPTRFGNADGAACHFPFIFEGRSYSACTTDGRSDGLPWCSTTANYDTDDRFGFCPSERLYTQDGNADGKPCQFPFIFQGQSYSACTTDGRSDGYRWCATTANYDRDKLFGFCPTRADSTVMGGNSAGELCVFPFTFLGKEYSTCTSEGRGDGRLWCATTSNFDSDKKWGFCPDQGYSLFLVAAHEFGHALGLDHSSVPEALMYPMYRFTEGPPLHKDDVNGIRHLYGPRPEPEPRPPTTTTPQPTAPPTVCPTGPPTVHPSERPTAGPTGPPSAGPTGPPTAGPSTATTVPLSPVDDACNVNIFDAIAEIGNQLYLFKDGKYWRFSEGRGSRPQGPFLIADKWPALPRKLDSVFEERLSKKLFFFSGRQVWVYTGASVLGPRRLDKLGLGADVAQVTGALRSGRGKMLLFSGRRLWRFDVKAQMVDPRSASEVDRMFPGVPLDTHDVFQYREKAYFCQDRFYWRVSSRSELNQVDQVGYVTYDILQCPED
Chain of MMP-3CD (P08254 100-272 limits assumed): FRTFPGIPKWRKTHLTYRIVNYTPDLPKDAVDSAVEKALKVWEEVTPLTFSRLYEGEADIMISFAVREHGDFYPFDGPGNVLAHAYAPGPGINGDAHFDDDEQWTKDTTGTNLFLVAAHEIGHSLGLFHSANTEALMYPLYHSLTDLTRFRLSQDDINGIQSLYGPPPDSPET

Row | IC50 [1] | IC50 [2] | IC50 [3] | IC50 [4] | IC50 [5] | IC50 [6] | IC50 [7] | SMILES
1 | 6900 nM | 390 nM | 39 nM | 100000 nM | 54000 nM | 1310 nM | 150 nM | CC1(C)SCCN(S(=O)(=O)c2ccc3c4c(oc3c2)CCCC4)[C@H]1C(=O)O [Example 3, (S)-2,2-Dimethyl-4-(6,7,8,9-tetrahydro-dibenzofuran-3-sulfonyl)thiomorpholine-3-carboxylic Acid]
2 | 69 nM | 82 nM | 9 nM | 230 nM | 210 nM | 12 nM | 52 nM | CC1(C)SCCN(S(=O)(=O)c2ccc3c4c(oc3c2)CCCC4)[C@H]1C(=O)NO [Example 4, (S)-2,2-Dimethyl-4-(6,7,8,9-tetrahydro-dibenzofuran-3-sulfonyl)thiomorpholine-3-carboxylic Hydroxamide]
3 | 970 nM | 220 nM | 15 nM | 420 nM | 450 nM | 6.2 nM | 53 nM | CC1(C)C(C(=O)NO)N(S(=O)(=O)c2ccc3c4c(oc3c2)CCCCC4)CCS1(=O)=O (stereo not shown) [Example 7, 2,2-Dimethyl-1,1-dioxo-4-(6,7,8,9-tetrahydro-5H-10-oxa-benzo{a}azulene-2-sulfonyl)-1l^6-thiomorpholine-3-carboxylic Acid Hydroxyamide]

Row | SMILES | IC50 [1] | IC50 [2] | IC50 [3] | IC50 [4] | IC50 [5] | IC50 [6] | IC50 [7]
4 | CC1(C)C(C(=O)O)N(S(=O)(=O)c2ccc3c4c(oc3c2)CCCCC4)CCS1(=O)=O (stereo not shown) [Example 6, 2,2-Dimethyl-1,1-dioxo-4-(6,7,8,9-tetrahydro-5H-10-oxa-benzo{a}azulene-2-sulfonyl)-1l^6-thiomorpholine-3-carboxylic Acid] | 40000 nM | 600 nM | 37 nM | 41000 nM | 70000 nM | 2100 nM | 93 nM
